Results: patent publication US5965699A (priority 1996, dated 1999)
“And” between values parts separate entries of the source, which are not always exact repeats. Equal values may be shown once. Read-outs that look alike come from different tables or passages of the source. Where a SMILES comes first, the peptide text is derived from it. [ ]: non-standard residue; d: D form. Abu = CC[C@H](N)C(=O)O

Legend:
botox A [1] = target: T1, botox A (Clostridium botulinum, UniProt P0DPI1)
botox A [2] = target: T1, botox A; type: biochemical; set-up: Rate (initial rate of peptide hydrolysis) / Rate (initial rate of hydrolysis) In AcBSA: unit not given here
botox A [3] = target: T1, botox A; assay: biochemical; settings: for inhibition at 1000 µM: read-out: inhibition of hydrolysis of peptide [1-17]

T1 sequence (P0DPI1 2-448 limits assumed): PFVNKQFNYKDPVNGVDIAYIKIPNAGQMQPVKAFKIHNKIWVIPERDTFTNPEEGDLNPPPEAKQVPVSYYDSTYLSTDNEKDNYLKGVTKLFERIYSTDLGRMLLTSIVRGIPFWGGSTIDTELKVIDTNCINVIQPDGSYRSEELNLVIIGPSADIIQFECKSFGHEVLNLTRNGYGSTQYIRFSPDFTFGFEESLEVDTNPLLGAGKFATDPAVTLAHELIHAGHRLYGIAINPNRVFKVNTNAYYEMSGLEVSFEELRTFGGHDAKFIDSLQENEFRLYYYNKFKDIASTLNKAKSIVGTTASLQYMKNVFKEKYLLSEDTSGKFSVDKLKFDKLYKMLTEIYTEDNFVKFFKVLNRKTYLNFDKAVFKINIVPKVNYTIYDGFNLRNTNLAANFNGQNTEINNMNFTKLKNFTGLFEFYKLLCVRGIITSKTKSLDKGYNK

**Q.** Which “effect on hydrolysis of substrate peptides by botox A” value (from here on “effect on hydrolysis”) (botox A [1]) does the source give for ovalbumin here?
**A.** no effect

**Q.** What does the source list for “Ac-SNKTRIDEANQRATK-NH2 [[1-15], S N K T R I D E A N Q R A T K]”?
**A.** Relative Rate (initial hydrolysis rates relative to peptide [1-17]) (botox A [2]): 0.03; hydrolysis by botox A, described in words (botox A [2]): very slow rate of hydrolysis; kcat as percent of that for peptide [1-17] (botox A [2]): 2-3%; kcat (botox A [2]; in 1/s): ~1.0; inhibition at 1000 µM (botox A [3]): 17%

**Q.** Which results are given for CC[C@H](NC(=O)[C@H](CC(=O)O)NC(=O)[C@@H](NC(=O)[C@H](CCCNC(=N)N)NC(=O)[C@@H](NC(=O)[C@H](CCCNC(=N)N)NC(=O)[C@H](CC(N)=O)NC(=O)[C@H](CO)NC(C)=O)[C@@H](C)O)[C@@H](C)CC)C(=O)N[C@@H](C)C(=O)N[C@@H](CC(N)=O)C(=O)N[C@@H](CCC(N)=O)C(=O)N[C@@H](CCCNC(=N)N)C(=O)N[C@@H](C)C(=O)N[C@H](C(=O)N[C@@H](CCCNC(=N)N)C(=O)N[C@@H](CCSC)C(=O)N[C@@H](CC(C)C)C(N)=O)[C@@H](C)O [peptide 5, S N R T R I D B A N Q R A T R M L] (Ac-SNRTRID[Abu]ANQRATRML-NH2)?
**A.** Kcat In AcBSA (botox A [2]): 70 s⁻¹; Kcat In BSA (botox A [2]): 69 s⁻¹; Rate (initial rate of hydrolysis) In AcBSA (botox A [2]): 21; Rate (initial rate of hydrolysis) In BSA (botox A [2]): 13; Rate (initial rate of peptide hydrolysis) (botox A [2]): 12.9 ± 0.3; Relative Rate (botox A [2]): 1.7; specific activity of type A toxin against the peptide (botox A [2]): 21 µmol/min/mg; Km (botox A [2]; read-out: Km In AcBSA): 330 µM; Km (botox A [2]; read-out: Km In BSA): 740 µM

**Q.** For ribonuclease, which “effect on hydrolysis” value (botox A [1]) is on record?
**A.** no effect

**Q.** What does the source list for “Ac-SNKTRIDEANQRATAML-NH2 [K15A, S N K T R I D E A N Q R A T A M L]”?
**A.** hydrolysis by botox A, described in words (botox A [2]): significantly lower hydrolysis rate; kcat (botox A [2]; in 1/s): ~8.0; Km (botox A [2]; read-out: Km): ~1000 µM

**Q.** How did the “effect on hydrolysis” value (botox A [1]) turn out when gelatin was run?
**A.** no effect

**Q.** How did the “hydrolysis by botox A, described in words” value (“hydrolysis … in words” for short) (botox A [2]) turn out when “Ac-SNKTRIDEAAQRATKML-NH2 [N10A, S N K T R I D E A A Q R A T K M L]” was run?
**A.** only very slowly cleaved

**Q.** And the “kcat as percent of that for peptide [1-17]” value (botox A [2])?
**A.** about 4%

**Q.** What about the kcat (botox A [2]; in 1/s) of the same compound?
**A.** 1.8 ± 0.1

**Q.** What about the inhibition at 1000 µM (botox A [3]) of the same compound?
**A.** 30%

**Q.** Which results are given for “Ac-SNKTRIDEANQRATKM-NH2 [[1-16], S N K T R I D E A N Q R A T K M]”?
**A.** Relative Rate (initial hydrolysis rates relative to peptide [1-17]) (botox A [2]): .17; hydrolysis by botox A, described in words (botox A [2]): excellent substrate; kcat (botox A [2]; in 1/s): 6 ± 4; Km (botox A [2]; read-out: Km): 1600 ± 100 µM

**Q.** Which results are given for “Ac-SNKTRIDEANARATKML-NH2 [Q11A, S N K T R I D E A N A R A T K M L]”?
**A.** Relative Rate (initial hydrolysis rates relative to peptide [1-17]) (botox A [2]): 0.19; hydrolysis by botox A, described in words (botox A [2]): slowed but did not eliminate hydrolysis

**Q.** What does the source list for “Ac-SNRTRIDQANQRATRML-NH2 [compound 4, S N R T R I D Q A N Q R A T R M L]”?
**A.** Kcat In AcBSA (botox A [2]): 68 s⁻¹; Kcat In BSA (botox A [2]): 64 s⁻¹; Rate (initial rate of hydrolysis) In AcBSA (botox A [2]): 19; Rate (initial rate of hydrolysis) In BSA (botox A [2]): 13; Rate (initial rate of peptide hydrolysis) (botox A [2]): 12.6 ± 0.5; Relative Rate (botox A [2]): 1.7; Km (botox A [2]; read-out: Km In AcBSA): 470 µM; Km (botox A [2]; read-out: Km In BSA): 760 µM

**Q.** How did the “hydrolysis … in words” value (botox A [2]) turn out when “Ac-SNKTRIDEAQQRATKML-NH2 [N10Q, S N K T R I D E A Q Q R A T K M L]” was run?
**A.** No hydrolysis

**Q.** What does the source list for CC[C@H](NC(=O)[C@H](CCC(=O)O)NC(=O)[C@H](CC(=O)O)NC(=O)[C@@H](NC(=O)[C@H](CCCNC(=N)N)NC(=O)[C@@H](NC(=O)[C@H](CCCCN)NC(=O)[C@H](CC(N)=O)NC(=O)[C@H](CO)NC(C)=O)[C@@H](C)O)[C@@H](C)CC)C(=O)N[C@@H](CC(N)=O)C(=O)N[C@@H](CCC(N)=O)C(=O)N[C@@H](CCCNC(=N)N)C(=O)N[C@@H](C)C(=O)N[C@H](C(=O)N[C@@H](CCCCN)C(=O)N[C@@H](CCSC)C(=O)N[C@@H](CC(C)C)C(N)=O)[C@@H](C)O [A9B, S N K T R I D E B N Q R A T K M L] (Ac-SNKTRIDE[Abu]NQRATKML-NH2)?
**A.** decrease in kcat compared with peptide [1-17] (botox A [2]): about 75%; hydrolysis by botox A, described in words (botox A [2]): still a good substrate; kcat (botox A [2]; in 1/s): 11 ± 1; Km (botox A [2]; read-out: Km): 1100 ± 100 µM

**Q.** With “Ac-TRIDEANQRATKM-NH2 [13-residue peptide]” as the compound, how does the “reduction in rate of botox A-catalyzed hydrolysis” value (botox A [2]) read?
**A.** 43%

**Q.** CC[C@H](NC(=O)[C@H](C)NC(=O)[C@H](CCCNC(=N)N)NC(=O)[C@H](CCC(N)=O)NC(=O)[C@H](CC(N)=O)NC(=O)[C@H](C)NC(=O)[C@H](CCC(=O)O)NC(=O)[C@H](CC(=O)O)NC(=O)[C@@H](NC(=O)[C@H](CCCNC(=N)N)NC(=O)[C@@H](NC(=O)[C@H](CCCCN)NC(=O)[C@H](CC(N)=O)NC(=O)[C@H](CO)NC(C)=O)[C@@H](C)O)[C@@H](C)CC)C(=O)N[C@@H](CCCCN)C(=O)N[C@@H](CCSC)C(=O)N[C@@H](CC(C)C)C(N)=O [T14B, S N K T R I D E A N Q R A B K M L] (Ac-SNKTRIDEANQRA[Abu]KML-NH2) was tested. Which “Relative Rate (initial hydrolysis rates relative to peptide [1-17])” value (botox A [2]) did it give?
**A.** 1.20

**Q.** What about the “hydrolysis … in words” value (botox A [2]) of the same compound?
**A.** good substrate

**Q.** And the kcat (botox A [2]; in 1/s)?
**A.** 35 ± 2

**Q.** What about the Km (botox A [2]; read-out: Km) of the same compound?
**A.** 1300 ± 100 µM

**Q.** For “Ac-SNKTRIDEANQRATKAL-NH2 [M16A, S N K T R I D E A N Q R A T K A L]”, which “Relative Rate (initial hydrolysis rates relative to peptide [1-17])” value (botox A [2]) is on record?
**A.** .38

**Q.** What about the “decrease in kcat compared with peptide [1-17]” value (botox A [2]) of the same compound?
**A.** ~50%

**Q.** What about the kcat (botox A [2]; in 1/s) of the same compound?
**A.** 25 ± 1

**Q.** What about the Km (botox A [2]; read-out: Km) of the same compound?
**A.** 1900 ± 100 µM

**Q.** With “Ac-SNKTRIDEANQRLTKML-NH2 [A13L, S N K T R I D E A N Q R L T K M L]” as the compound, how does the “hydrolysis … in words” value (botox A [2]) read?
**A.** below the limits of detection

**Q.** What about the Ki (botox A [3]) of the same compound?
**A.** 1000 to 2000 µM

**Q.** What about the inhibition at 1000 µM (botox A [3]) of the same compound?
**A.** 30%

**Q.** For lysozyme, which “effect on hydrolysis” value (botox A [1]) is on record?
**A.** no effect

**Q.** What does the source list for “Ac-SNKTRIDEANQRASKML-NH2 [T14S, S N K T R I D E A N Q R A S K M L]”?
**A.** Km (botox A [2]): 1200 µM; Relative Rate (initial hydrolysis rates relative to peptide [1-17]) (botox A [2]): 0.26; hydrolysis by botox A, described in words (botox A [2]): significantly lower hydrolysis rate; kcat (botox A [2]): ~9.0 and 9.0 sec^-1; Km (botox A [2]; read-out: Km): ~1200 µM
